Consider seven compounds from patent US4107201A, “S-Phenenyltris(thioureylene)trinaphthalenetrisulfonic acid salts” (American Cyanamid Company, priority 1977, dated 1978).

Counter-ions that a name gives are not always drawn.

The test system of one assay is whole complement. The assay is described as follows: Complement Level Reduction Test: serum whole complement of dosed guinea pigs by capillary tube assay. The class given is in vivo. As to conditions: guinea pig, vs simultaneous controls. The source says: An active inhibitor protects C2 from C1 and C4; (ii) Test, Code 035 (C3-C9 inhibitor) -- This test determines the ability of the late components of human complement (C3-C9) to lyse EAC 142 in the presence of appropriate dilutions of the test compound. An active inhibitor protects EAC 142 from lysis by human C3-C9; (iii) Test, Code 036 (C-Shunt inhibitor) -- In this test human erythrocytes rendered fragile are lysed in autologous serum via the shunt pathway activated by cobra venom factor in the presence of appropriate dilutions of the test compound. Inhibition of the shunt pathway results in failure of lysis; (iv) Forssman Vasculitis Test -- Here, the well known complement dependent lesion, Forssman vasculitis, is produced in guinea pigs by intradermal injection of rabbit anti-Forssman antiserum. The lesion is measured in terms of diameter, edema and hemorrhage and the extent to which a combined index of these is inhibited by prior intraperitoneal injection of the test compound at 200 mg/kg is then reported, unless otherwise stated; (v) Forssman Shock Test -- Lethal shock is produced in guinea pigs by an i.v. injection of anti-Forssman antiserum and the harmonic mean death time of treated guinea pigs is compared with that of simultaneous controls; (vi) Complement Level Reduction Test -- In this test, the above dosed guinea pigs, or others, are bled for serum and the complement level is determined in undiluted serum by the capillary tube method of U.S. Pat. No. 3,876,376 and compared to undosed control guinea pigs; and (vii) Cap 50 Test -- Here, appropriate amounts of the test compound are added to a pool of guinea pig serum in vitro, after which the undiluted serum capillary tube assay referred to above is run. The concentration of compound inhibiting 50% is reported.
With reference to Table I, guinea pigs weighing about 300 g were dosed intravenously (i.v.) or intraperitoneally (i.p.) with 200 mg/kg of the test compound dissolved in saline and adjusted to pH 7-8. […] The serum was tested for whole complement using the capillary tube assay. Percent inhibition was calculated by comparison with simultaneous controls. The results appear in Table I together with results of tests, code 026, 035, 036, Cap 50, % inhibition and Forssman shock.

For assay [1], the system named is late components of human complement (C3-C9). In words: Test, Code 035 (C3-C9 inhibitor): lysis of EAC 142 by late components of human complement. It counts as biochemical. As to conditions: well number in two-fold serial dilution assay; higher well number indicates higher activity. An excerpt:
An active inhibitor protects C2 from C1 and C4; (ii) Test, Code 035 (C3-C9 inhibitor) -- This test determines the ability of the late components of human complement (C3-C9) to lyse EAC 142 in the presence of appropriate dilutions of the test compound. An active inhibitor protects EAC 142 from lysis by human C3-C9; (iii) Test, Code 036 (C-Shunt inhibitor) -- In this test human erythrocytes rendered fragile are lysed in autologous serum via the shunt pathway activated by cobra venom factor in the presence of appropriate dilutions of the test compound. Inhibition of the shunt pathway results in failure of lysis; (iv) Forssman Vasculitis Test -- Here, the well known complement dependent lesion, Forssman vasculitis, is produced in guinea pigs by intradermal injection of rabbit anti-Forssman antiserum. […]

For assay [2], the system named is hereditary angioneurotic edema. To be noted: in vivo; cited from earlier work.
The test system of a further assay is complement system. To be noted: cited from earlier work.
For assay [3], the system named is total hemolytic complement activity (human serum). As to conditions: in vitro and in vivo, reduction in total hemolytic complement activity; cited from earlier work.

For the compound `O=S(=O)(O)c1cc(NC(=S)Nc2cc(NC(=S)Nc3cc(S(=O)(=O)O)cc4cc(S(=O)(=O)O)cc(S(=O)(=O)O)c34)cc(NC(=S)Nc3cc(S(=O)(=O)O)cc4cc(S(=O)(=O)O)cc(S(=O)(=O)O)c34)c2)c2c(S(=O)(=O)O)cc(S(=O)(=O)O)cc2c1` [8,8',8"-[s-Phenenyltris(2-thioureylene)]tri-1,3,6-naphthalenetrisulfonic acid nonasodium salt], the “% change in serum whole complement level” value with whole complement (200 mg/kg i.p., 30 mins.) was -81%; in the assay on whole complement (200 mg/kg i.p., 60 mins.) it was -84%; with whole complement (200 mg/kg i.p., 120 mins.), -91%; in the assay with whole complement (200 mg/kg i.v., 2 mins.), -98%; in the assay with whole complement (200 mg/kg i.v., 30 mins.), -92%; in the assay with whole complement (200 mg/kg i.v., 120 mins.), -86%. For the same compound, the “C-Late 035 Wells” value in assay [1] is on record as “+1 Wells”.
With `Cc1ccc(C(=O)Nc2ccc(S(=O)(=O)O)c3cc(S(=O)(=O)O)cc(S(=O)(=O)O)c23)cc1NC(=O)c1cccc(NC(=O)Nc2cccc(C(=O)Nc3cc(C(=O)Nc4ccc(S(=O)(=O)O)c5cc(S(=O)(=O)O)cc(S(=O)(=O)O)c45)ccc3C)c2)c1` [Suramin], in assay [2], the “use in treatment of hereditary angioneurotic edema” value (shortened to “use in treatment”) is on record as “used with success”. Besides, the “anticomplementary effect / complement inhibition” value in the assay on complement system is on record as “competitive inhibitor of the complement system”.
Take `Nc1ccc2cc(S(=O)(=O)O)cc(O)c2c1N=Nc1ccc(NC(=O)Nc2ccc(N=Nc3c(N)ccc4cc(S(=O)(=O)O)cc(O)c34)c(S(=O)(=O)O)c2)cc1S(=O)(=O)O` [chlorazol fast pink, 3,3'-ureylenebis-[6-(2-amino-8-hydroxy-6-sulfo-1-naphthylazo)]benzenesulfonic acid, tetrasodium salt]: the “anticomplementary effect / complement inhibition” value with complement system is “anticomplementary effect”.
As to `NCCCCCC(=O)O` [epsilon-aminocaproic acid], the “use in treatment” value in assay [2] is “used with success”.
For `NC[C@H]1CC[C@H](C(=O)O)CC1` [tranexamic acid], the “use in treatment” value in assay [2] was “used with success”.
For the compound heparin, the “anticomplementary effect / complement inhibition” value in the assay with complement system is on record as “anticomplementary effect”.
For the compound pentosan-poly-sulfoester, in assay [3], the “anticomplementary activity on human serum” value was “anticomplementary activity on human serum both in vitro and in vivo”.
